Assay results taken from the Kinase Knowledgebase extract (Sharma et al. 2016).

Target: MAPK14;MAPK11;MAPK12 (human) (UniProt Q16539)
Assay: Inhibition of p38 Kinase Activity

IC50 [nM]	Compound
< 1000	Cc1ccc(C(N)=O)cc1Nc1nc(N[C@H]2CCN(C3CCCC3)C2)nc(N(C)CC(C)(C)C)n1
< 10000	CNC1CCN(c2cc(NCCOC(C)C)nc(-n3cnc4cc(C)ccc43)n2)C1 (stereo unspecified)
< 1000	CNC(=O)c1ccc(C)c(Nc2nc(O[C@H]3CCNC3)nc(N(C)CC(C)(C)C)n2)c1
< 10000	Nc1nc(NCCc2ccccc2)nc(Nc2ccc(S(=O)(=O)N(C=O)c3ncccn3)cc2)n1
< 1000	Cc1ccc(C(N)=O)cc1Nc1nc(N[C@H]2CCN(c3ccccc3N)C2)nc(N(C)CC(C)(C)C)n1
< 1000	Cc1ccc(C(N)=O)cc1Nc1nc(N[C@H]2CCN(CC(C)(C)C)C2)nc(N(C)CC(C)(C)C)n1
< 1000	Cc1ccc(C(N)=O)cc1Nc1nc(O)nc(NCC(C)c2ccccc2)n1 (stereo unspecified)
< 10000	CCNC(=O)N(C)CCCN(C)c1nc(NCC(C)c2ccccc2)nc(Nc2ccc3ncsc3c2)n1 (stereo unspecified)
< 1000	Cc1ccc(C(N)=O)cc1Nc1nc(NCC(N)=O)nc(NCC(C)c2ccccc2)n1 (stereo unspecified)
< 1000	Cc1cc2c(cc1Cl)C(=O)N2c1nc(N[C@H]2CCNC2)nc(N(C)CC(C)C)n1
< 10000	CNCCN(C)c1nc(NCC2CCC3CC2C3(C)C)nc(Nc2ccc3ncsc3c2)n1 (stereo unspecified)
< 1000	CC(=O)Nc1ccc(C)c(Nc2nc(N[C@H]3CCNC3)nc(N(C)CC(C)(C)C)n2)c1
< 1000	CCc1ccc(CN2CC[C@@H](Nc3nc(Nc4cc(C(N)=O)ccc4C)nc(N(C)CC(C)C)n3)C2)cc1
< 1000	Cc1ccc(C(N)=O)cc1Nc1nc(N[C@H]2CCN(Cc3cccc(O)c3)C2)nc(N(C)CC(C)C)n1
< 10000	O=C(O)CCC(=O)N1CCN(c2nc(Nc3ccc4ncsc4c3)nc(NC3CCc4ccccc43)n2)CC1 (stereo unspecified)
< 10000	CC1(C)C2CCC(CNc3nc(Nc4ccc5ncoc5c4)nc(N4CCNCC4)n3)C1C2 (stereo unspecified)
< 1000	Cc1ccc(C(N)=O)cc1Nc1nc(N[C@H]2CCCC[C@H]2O)nc(N(C)CC(C)C)n1
< 10000	CN(CC1CCC2CC1C2(C)C)c1nc(Nc2ccc3ncsc3c2)nc(N2CCN(C(=O)OC(C)(C)C)CC2)n1 (stereo unspecified)
< 1000	CONC(=O)c1ccc(C)c(Nc2nc(NCc3ccc(Cl)c(Cl)c3)nc(N(C)CC(C)(C)C)n2)c1
< 10000	CN(CC1CCCCC1)c1nc(Nc2ccc3ncsc3c2)nc(N2CCNCC2)n1
< 10000	CC(C)OCCNc1cc(N2CCNCC2)nc(-n2cnc3ccccc32)n1
< 1000	Cc1ccc(C(N)=O)cc1Nc1nc(NC[C@H]2CCCN2)nc(N(C)CC2CCCC2)n1
< 1000	Cc1ccc(C(N)=O)cc1Nc1nc(N[C@H]2CCNC2)nc(N(C)CC2CCCCC2)n1

IC50 [nM]	Compound
< 1000	Cc1ccc(C(N)=O)cc1Nc1nc(N[C@H]2CCN(CCC#N)C2)nc(N(C)CC(C)(C)C)n1
< 1000	Cc1ccc(C(N)=O)cc1Nc1nc(N[C@H]2CCN(C(C)(C)C)C2)nc(N(C)CC(C)(C)C)n1
< 1000	Cc1ccc(C(N)=O)cc1Nc1nc(N[C@@H]2CCCC[C@@H]2N)nc(N(C)CC(C)(C)C)n1
< 30000	Cc1ccc(C(N)=O)cc1Sc1nc(N[C@@H]2CCNC2)nc(N(C)CC(C)(C)C)n1
< 10000	CC1(C)[C@H]2CCC(CNc3nc(Cl)nc(Nc4ccc(S(=O)(=O)Nc5ncccn5)cc4)n3)[C@@H]1C2 (stereo partly specified)
< 10000	CC(C)NC(=O)N1CCN(c2nc(NCC(C)c3ccccc3)nc(Nc3ccc4ncsc4c3)n2)CC1 (stereo unspecified)
< 1000	Cc1ccc(C(N)=O)cc1Nc1nc(N[C@H]2CCN(C(=O)c3ccccn3)C2)nc(N(C)CC(C)C)n1
< 10000	Cc1ccc2ncn(-c3nc(F)cc(NCCOC(C)C)n3)c2c1
< 10000	c1nc2ccc(Nc3nc(NCC4CCCO4)nc(NC4CC4)n3)cc2s1 (stereo unspecified)
< 10000	CC(=O)N1CCN(c2nc(NCC(C)c3ccccc3)nc(Nc3ccc4ncsc4c3)n2)CC1 (stereo unspecified)
< 1000	Cc1ccc(C(N)=O)cc1Nc1nc(N[C@H]2CCN(Cc3cccc(F)c3)C2)nc(N(C)CC(C)C)n1
< 1000	COc1ccccc1CN1CC[C@@H](Nc2nc(Nc3cc(C(N)=O)ccc3C)nc(N(C)CC(C)C)n2)C1
< 30000	Cc1ccc(C(N)=O)cc1Sc1nc(NCc2ccccn2)nc(N(C)CC(C)(C)C)n1
< 1000	Cc1ccc(C(N)=O)cc1Nc1nc(N[C@H]2CCN(Cc3ccc(Cl)cc3)C2)nc(N(C)CC(C)C)n1
< 10000	Nc1nc(NCCc2ccccc2)nc(Nc2ccc(S(=O)(=O)Nc3ncccn3)cc2)n1
< 1000	Cc1ccc(C(N)=O)cc1Nc1nc(NC2CCN(Cc3ccccc3)C2)nc(N(C)CC(C)(C)C)n1 (stereo unspecified)
< 1000	Cc1ccc(C(N)=O)cc1Nc1cc(N(C)CC(C)C)nc(N[C@H]2CCNC2)n1
< 10000	Cc1ccccc1NC(=O)N1CC2CC1CN2c1nc(NCC(C)c2ccccc2)nc(Nc2ccc3ncsc3c2)n1 (stereo unspecified)
< 1000	Cc1ccc(C(N)=O)cc1Nc1nc(NC2CCCCC2)nc(N(C)CC(C)(C)C)n1
< 10000	CC(CNc1nc(Nc2ccc3ncsc3c2)nc(N2CCN(C(=O)c3ccccc3)CC2)n1)c1ccccc1 (stereo unspecified)
< 1000	Cc1ccccc1CN1CC[C@H](Nc2nc(Nc3cc(C(N)=O)ccc3C)nc(N(C)CC(C)C)n2)C1
< 1000	Cc1cc2c(cc1Nc1nc(N[C@H]3CCNC3)nc(N(C)CC(C)(C)C)n1)C(=O)NC2
< 10000	CC(CNc1nc(Nc2ccc3ncsc3c2)nc(N2CC3CC2CN3C(=O)C2CCOC2)n1)c1ccccc1 (stereo unspecified)

IC50 [nM]	Compound
< 10000	CC(CNc1nc(Nc2ccc3ncsc3c2)nc(N2CCN(C(=O)c3cccnc3)CC2)n1)c1ccccc1 (stereo unspecified)
< 1000	Cc1ccc(C(=O)Nc2c(Cl)cccc2Cl)cc1Nc1nc(N[C@H]2CCNC2)nc(N(C)CC(C)(C)C)n1
< 10000	Clc1nc(Nc2ccc3ncsc3c2)nc(N[C@H]2C[C@H]2c2ccccc2)n1
< 10000	CC(CNc1nc(Nc2ccc3ncsc3c2)nc(N2CC3CC2CN3S(=O)(=O)N(C)C)n1)c1ccccc1 (stereo unspecified)
< 1000	Cc1ccc(C(N)=O)cc1Nc1nc(NC2CCN(Cc3ccccn3)C2)nc(N(C)CC(C)C)n1 (stereo unspecified)
< 1000	COCCNC(=O)c1ccc(C)c(Nc2nc(N[C@H]3CCNC3)nc(N(C)CC(C)C)n2)c1
< 1000	Cc1ccc(C(N)=O)cc1Nc1nc(NC(C)C2CCCCC2)nc(N[C@H]2CCNC2)n1 (stereo partly specified)
< 1000	Cc1ccc(C(N)=O)cc1Nc1nc(NC2CCN(C(C)C)CC2)nc(N(C)CC(C)(C)C)n1
< 1000	Cc1ccc(C(N)=O)cc1Nc1nc(N[C@H]2CCN(C(C)C#N)C2)nc(N(C)CC(C)C)n1 (stereo partly specified)
< 1000	CCCNC(=O)c1ccc(C)c(Nc2nc(O[C@H]3CCNC3)nc(N(C)CC(C)(C)C)n2)c1
< 1000	CCN1CC[C@@H](Nc2nc(Nc3cc(C(N)=O)ccc3C)nc(N(C)CC(C)(C)C)n2)C1
< 1000	Cc1ccc(C(=O)NCCc2ccccc2)cc1Nc1nc(N[C@H]2CCNC2)nc(N(C)CC(C)(C)C)n1
< 10000	CC1(C)C2CCC(CNc3nc(Nc4ccc5ncsc5c4)cc(N4CCNCC4)n3)C1C2 (stereo unspecified)
< 1000	CONC(=O)c1ccc(C)c(Nc2nc(N(C)CC(C)(C)C)nc(N3CCCN(C)CC3)n2)c1
< 1000	Cc1ccc(C(N)=O)cc1Nc1nc(N[C@H]2CCN(C3CCC3)C2)nc(N(C)CC(C)(C)C)n1
< 1000	Cc1ccc(C(N)=O)cc1Nc1nc(NCC2CCC3CC2C3(C)C)nc(NC2CCNC2)n1 (stereo unspecified)
< 10000	Cc1ccccc1NC(=S)N1CCN(c2nc(NCC(C)c3ccccc3)nc(Nc3ccc4ncsc4c3)n2)CC1 (stereo unspecified)
< 1000	CCNC(=O)c1ccc(C)c(Nc2nc(N[C@H]3CCNC3)nc(N(C)CC(C)C)n2)c1
< 1000	CONC(=O)c1ccc(C)c(Nc2nc(N[C@H]3CCNC3)cc(N(C)CC(C)(C)C)n2)c1
< 1000	Cc1ccc(C(N)=O)cc1Nc1nc(N[C@H]2CCN(Cc3ccc(C(C)(C)C)cc3)C2)nc(N(C)CC(C)C)n1
< 1000	Cc1ccc(C(N)=O)cc1Nc1nc(NCC2(c3ccccc3)CC2)nc(N[C@H]2CCNC2)n1
< 10000	CCNC(=O)N1CCN(c2nc(NC[C@@H]3CC[C@H]4C[C@@H]3C4(C)C)nc(Nc3ccc4ncsc4c3)n2)CC1
< 1000	CN(CC(C)(C)C)c1nc(Cc2cccc(C(N)=O)c2)nc(N[C@H]2CCNC2)n1

IC50 [nM]	Compound
< 1000	C=CCN1CC[C@H](Nc2nc(Nc3cc(C(=O)NCC)ccc3C)nc(N(C)CC3CCCC3)n2)C1
< 10000	CC(C)C(=O)N1CCN(c2nc(NCC(C)c3ccccc3)nc(Nc3ccc4ncsc4c3)n2)CC1 (stereo unspecified)
< 30000	CONC(=O)c1ccc(F)c(Sc2nc(N(C)CC(C)(C)C)nc(N3CCCN(C)CC3)n2)c1
< 1000	Cc1ccc(-c2ncc[nH]2)cc1Nc1nc(N(C)CC(C)(C)C)nc(N2CCCN(C)CC2)n1
< 10000	CC(C)NC(=O)N1CC2CC1CN2c1nc(NCC(C)c2ccccc2)nc(Nc2ccc3ncsc3c2)n1 (stereo unspecified)
< 1000	CCCC1(C)CCN(c2nc(Nc3cc(C(N)=O)ccc3C)nc(N[C@@H]3CCNC3)n2)C1 (stereo partly specified)
< 1000	CONC(=O)c1ccc(C)c(Nc2nc(NCCN3CCCC3)nc(N(C)CC(C)(C)C)n2)c1
< 1000	Cc1ccc(C(=O)NC2CCCC2)cc1Nc1nc(N[C@H]2CCNC2)nc(N(C)CC(C)(C)C)n1
< 1000	CONC(=O)c1ccc(C)c(Nc2nc(N)nc(N(C)CC(C)(C)C)n2)c1
< 10000	CC1(C)[C@H]2CCC(COc3nc(O)nc(Nc4ccc5ncsc5c4)n3)[C@@H]1C2 (stereo partly specified)
< 1000	Cc1ccc(C(=O)NC(C)C)cc1Nc1nc(N[C@H]2CCNC2)nc(N(C)CC(C)C)n1
< 10000	CCCc1nc(NCc2ccc(S(N)(=O)=O)cc2)nc(Nc2cccc(-c3ccccc3)c2)n1
< 1000	CONC(=O)c1ccc(C)c(Nc2nc(N(C)CC(C)(C)C)cc(N3CCCN(C)CC3)n2)c1
< 10000	CNC(=O)CCC(=O)N1CCN(c2nc(NCC3CCC4CC3C4(C)C)nc(Nc3ccc4ncsc4c3)n2)CC1 (stereo unspecified)
< 1000	Cc1ccc(C(=O)O)cc1Nc1nc(N[C@H]2CCNC2)nc(N(C)CC(C)(C)C)n1
< 1000	CNC(=O)c1ccc(C)c(Nc2nc(NC3CCN(Cc4ccccn4)C3)nc(N(C)CC(C)(C)C)n2)c1 (stereo unspecified)
< 10000	CC(C)Oc1nc(NCC(C)c2ccccc2)nc(Nc2ccc3ncsc3c2)n1 (stereo unspecified)
< 1000	CONC(=O)c1ccc(C)c(Nc2nc(N[C@@H]3CCNC3)nc(N(C)CC(C)C(F)(F)F)n2)c1 (stereo partly specified)
< 10000	Cc1c(Nc2nc(NCC(C)c3ccccc3)nc(N3CCNCC3)n2)ccc2ncsc12 (stereo unspecified)
< 1000	CCCCC(C)c1nc(Nc2cc(C(N)=O)ccc2C)nc(N[C@H]2CCNC2)n1 (stereo partly specified)
< 1000	COc1ccccc1CN1CCC(Nc2nc(Nc3cc(C(N)=O)ccc3C)nc(N(C)CC(C)C)n2)C1 (stereo unspecified)
< 10000	Cc1ccc2ncn(-c3nc(NCCOC(C)C)cc(N(C)C)n3)c2c1
